Reference: US20100146645A1, “TRANSGENIC ANIMAL MODEL FOR MODELLING PA[…], A METHOD FOR IDENTIFYING COMPOUNDS FOR TREATMENT OF DISEASES OR DISORDERS CAUSED BY PA[…] AND A METHOD FOR USING WFS1 PROTEIN AS A TARGET FOR I[…] COMPOUNDS AGAINST PA[…]” (priority 2006, published 2010)

Assays:
[1] = system: Wfs1 −/− mice; assay: Elevated plus-maze, effect of diazepam on anxiety behaviour and vocalization; assay type: in vivo, mouse
[2] = system: Wfs1 −/− mice; assay: Light-dark cage test, vocalization; assay type: in vivo, mouse; details: Wfs1 −/− mice (30% vocalized), anxiolytic dose of diazepam injected
Method: The cage was divided into two: a ⅔ part was lighted and a ⅓ part with darkened cover. The light part was divided into three equal parts, so that the most aversive part was the third part, which is located most distantly from the dark part. Anxious animals preferred to remain mostly in the dark part and avoided the aversive light partition. The experiment was performed one week after the elevated plus-maze experiment and no preliminary isolation of the animals was applied. Lighting level in the light part of the cage was 270 lux.
Namely, the female Wfs1 −/− mice performed 1.5-2 times less entrances to the various parts of the light partition, if compared to the wild type mice (FIG. 7) and the duration of their stay in the light part was twice shorter (FIG. 8). […] In the test cage 30% of the Wfs1 −/− mice vocalized.

## CN1C(=O)CN=C(c2ccccc2)c2cc(Cl)ccc21 [diazepam]
[1]; Wfs1-deficient mice, diazepam 1 mg/kg
  Suppressed exploratory activity and risk behaviour: significantly reduced
[1]; Wfs1 −/− mice, diazepam 0.5 mg/kg
  Stress-induced vocalization: not effective
[1]; Wfs1 −/− mice, diazepam 1 mg/kg
  Stress-induced vocalization: removed
[1]; Wfs1 −/− mice, diazepam group, physiological saline group 24%
  Vocalization (share of vocalizing mice): 0%
[1]; female Wfs1 −/− homozygotes, diazepam 1 mg/kg vs physiological saline, FIG. 4
  Time spent on the open arms of the cage: increased
[1]; female Wfs1 −/− homozygotes, diazepam 1 mg/kg vs physiological saline, FIG. 5
  Number of downwards examinations (head dippings) from the open arms: increased
[1]; female Wfs1 −/− homozygotes, diazepam 1 mg/kg vs physiological saline, FIG. 6
  Risk avoidance behaviour: significantly decreased
[2]
  Vocalization in the test cage: completely removed
